Experimental data published in article PMC8509398, “Proteolytic Cleavage of Bioactive Peptides and Protease-Activated Receptors in Acute and Post-Colitis” (International Journal of Molecular Sciences, 2021).
Residues, ends and D or L forms follow the SMILES beside them.

Key:
pancreatic elastase I = pancreatic elastase I (Sus scrofa, UniProt P00772); experiment: Cleavage of peptides by purified pancreatic elastase, MALDI-TOF/TOF; details: 25 nM protease, 10 µM peptide; for Incubation time at which the first cleavage or decrease of the full-length peptide was observed, pancreatic elastase: 37 °C, time points 2, 5, 10, 30 min; for TL disarming (D), Pancreatic Elastase / TL unmasking (U), Pancreatic Elastase: PAR-based peptides
Chain of pancreatic elastase I (P00772 27-266): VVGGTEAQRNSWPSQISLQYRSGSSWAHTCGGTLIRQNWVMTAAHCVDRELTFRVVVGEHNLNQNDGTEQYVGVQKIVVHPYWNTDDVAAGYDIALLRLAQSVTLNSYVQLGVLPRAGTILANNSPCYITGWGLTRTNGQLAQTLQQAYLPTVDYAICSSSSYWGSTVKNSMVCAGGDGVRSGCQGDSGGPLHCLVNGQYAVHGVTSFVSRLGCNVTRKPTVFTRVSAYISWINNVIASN
From the text: (§1) Trypsin-like proteases included in the experiments are trypsin-1, -2 and -3, tryptase (Enzo LifeSciences), thrombin (Sigma-Aldrich) and cathepsin G (Sigma-Aldrich). Trypsin-1, -2 and -3 were produced as described by Koistinen et al. and Wu et al.. Two elastase-like enzymes, neutrophil elastase (Enzo LifeSciences, Farmingdale, NY, USA) and pancreatic elastase I (Sigma-Aldrich) were included as well. All enzymes were from human origin except for pancreatic elastase from porcine pancreas.
(§2) Reaction mixtures with purified enzymes were compiled in an identical way. […] Substance P was added as the standard peptide except for the reaction mixtures with substance P or bradykinin as the peptide of interest, where angiotensin II (Bachem) was added.
(§3) The TFA mixtures were thawed on ice and desalted using C18 zip-tips (Merck Millipore®, Burlington, MA, USA) with a capacity of 5 µg protein. Retained peptide fragments were eluted directly on the MALDI target plate. Next, 0.5 µL of a 2.5 mg/mL α-cyano-4-hydroxycinnamic acid (Sigma-Aldrich) matrix solution (in 70% acetonitrile, 0.1% TFA) was spotted on top of the sample. A 6-Peptide mixture Kit (AB Sciex, Framingham, MA, USA) containing bradykinin (2–9), angiotensin I, glu1-fibrinopeptide, ACTH (1–17), ACTH (18–39) and ACTH (7–38) was diluted with matrix and spotted on the plate as well.
(§4) MS and MS/MS data for peptide fragment identification were obtained with a MALDI-TOF/TOF instrument (4800 MALDI TOF/TOF™, Applied Biosystems, Waltham, MA, USA) and instrument parameters were set using 4000 Series Explorer™ software. MS spectra were recorded in positive reflector mode in a mass range from 500 to 4000 Da and laser intensity of 4500–4800 Hz. The spectra were calibrated using the calibration mixture mentioned above to a mass tolerance of 0.1 Da. MS/MS spectra were recorded with high-energy collision-induced dissociation and the laser intensity was increased by 10%.
(§5) Identified fragments were confirmed using the MS/MS spectra and mMass 5.5.0 by Martin Strohalm. The relative intensities of the fragments were calculated as the ratio of the intensity of the peak of interest to the intensity of the peak of the standard peptide.

neutrophil elastase = target: T1, neutrophil elastase (Homo sapiens, UniProt P08246); experiment: Cleavage of peptides by purified neutrophil elastase, MALDI-TOF/TOF; details: 25 nM protease, 10 µM peptide; for Incubation time at which the first cleavage or decrease of the full-length peptide was observed, neutrophil elastase: 37 °C, time points 2, 5, 10, 30 min; for TL disarming (D), Neutrophil Elastase / TL unmasking (U), Neutrophil Elastase: PAR-based peptides
T1 sequence (P08246 30-267): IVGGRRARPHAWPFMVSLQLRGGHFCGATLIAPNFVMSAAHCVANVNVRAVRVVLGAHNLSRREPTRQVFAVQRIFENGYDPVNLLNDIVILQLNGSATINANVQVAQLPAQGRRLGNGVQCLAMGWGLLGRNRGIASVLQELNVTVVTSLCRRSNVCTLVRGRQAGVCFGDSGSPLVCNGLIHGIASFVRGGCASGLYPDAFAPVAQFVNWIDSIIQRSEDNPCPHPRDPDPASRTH
From the text: as §1, §2, §3, §4, §5

cathepsin G = target: T2, cathepsin G (Homo sapiens, UniProt P08311); experiment: Cleavage of peptides by purified cathepsin G, MALDI-TOF/TOF; details: 25 nM protease, 10 µM peptide; for Incubation time at which the first cleavage or decrease of the full-length peptide was observed, cathepsin G: 37 °C, time points 2, 5, 10, 30 min; for TL disarming (D), Cathepsin G / TL unmasking (U), Cathepsin G: PAR-based peptides
T2 sequence (P08311 21-255): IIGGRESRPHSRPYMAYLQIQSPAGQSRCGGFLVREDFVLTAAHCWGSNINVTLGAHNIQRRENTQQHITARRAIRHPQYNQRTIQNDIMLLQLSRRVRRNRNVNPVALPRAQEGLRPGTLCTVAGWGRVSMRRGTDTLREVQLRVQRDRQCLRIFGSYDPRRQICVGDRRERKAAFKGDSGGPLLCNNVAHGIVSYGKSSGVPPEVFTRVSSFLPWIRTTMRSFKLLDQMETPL
From the text: as §1, §2, §3, §4, §5

tryptase = tryptase (Homo sapiens, UniProt Q15661); experiment: Cleavage of peptides by purified tryptase, MALDI-TOF/TOF; details: 25 nM protease, 10 µM peptide; for Incubation time at which the first cleavage or decrease of the full-length peptide was observed, tryptase: 37 °C, time points 2, 5, 10, 30 min; for TL disarming (D), Tryptase / TL unmasking (U), Tryptase: PAR-based peptides
Chain of tryptase (Q15661 31-275): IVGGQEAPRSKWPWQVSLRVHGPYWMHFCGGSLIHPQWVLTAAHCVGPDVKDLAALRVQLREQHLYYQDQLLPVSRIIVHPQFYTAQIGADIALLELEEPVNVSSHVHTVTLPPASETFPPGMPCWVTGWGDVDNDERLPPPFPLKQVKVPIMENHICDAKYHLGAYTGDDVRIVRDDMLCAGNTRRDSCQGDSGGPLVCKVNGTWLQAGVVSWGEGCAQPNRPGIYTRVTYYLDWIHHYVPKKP
From the text: as §1
(§6) Reaction mixtures with purified enzymes were compiled in an identical way. Each mixture contained an equimolar concentration of protease (25 nM based on) and 10 µM peptide of interest and was incubated for 2, 5, 10 and 30 min at 37 °C. Substance P was added as the standard peptide except for the reaction mixtures with substance P or bradykinin as the peptide of interest, where angiotensin II (Bachem) was added.
as §3
as §4, with “10%. Precursor mass m/z 1570.65 (Glu1-Fibrinopeptide from the calibration mixture) was used to calibrate the MS/MS spectra to a mass tolerance of 0.1 Da.” for “10%.”
(§7) MS and MS/MS spectra were processed using DataExplorer™ software and the obtained output files were uploaded in the MS-PEP data analyzer (https://bioit.shinyapps.io/PARs/ accessed 10/08/2020) for peptide fragment identification. Identified fragments were confirmed using the MS/MS spectra and mMass 5.5.0 by Martin Strohalm. The relative intensities of the fragments were calculated as the ratio of the intensity of the peak of interest to the intensity of the peak of the standard peptide.

trypsin-2 = trypsin-2 (Homo sapiens, UniProt P07478); experiment: Cleavage of peptides by purified trypsin-2, MALDI-TOF/TOF; details: 25 nM protease, 10 µM peptide; for Incubation time at which the first cleavage or decrease of the full-length peptide was observed, trypsin-2: 37 °C, time points 2, 5, 10, 30 min; for TL disarming (D), Trypsin-2 / TL unmasking (U), Trypsin-2: PAR-based peptides
Chain of trypsin-2 (P07478 24-247): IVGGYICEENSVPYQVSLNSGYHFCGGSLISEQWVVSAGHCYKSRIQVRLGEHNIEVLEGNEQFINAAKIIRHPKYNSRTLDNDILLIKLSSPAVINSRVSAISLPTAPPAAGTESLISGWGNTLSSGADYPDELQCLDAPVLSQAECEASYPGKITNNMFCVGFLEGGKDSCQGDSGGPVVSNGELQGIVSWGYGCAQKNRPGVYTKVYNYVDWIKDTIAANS
From the text: as §1, §6, §3
as §4, with “10%. Precursor mass m/z 1570.65 (Glu1-Fibrinopeptide from the calibration mixture) was used to calibrate the MS/MS spectra to a mass tolerance of 0.1 Da.” for “10%.”
as §7

[1] = 37 °C, 2, 5, 10 and 30 min, stopped with 2% TFA

Compound	Incubation time at which the first cleavage or decrease of the full-length peptide was observed, pancreatic elastase (pancreatic elastase I) [min]	TL disarming (D), Pancreatic Elastase (pancreatic elastase I; 37 °C, 2, 5, 10 and 30 min)	TL unmasking (U), Pancreatic Elastase (pancreatic elastase I; 37 °C, 2, 5, 10 and 30 min)	Incubation time at which the first cleavage or decrease of the full-length peptide was observed, neutrophil elastase (neutrophil elastase) [min]	TL disarming (D), Neutrophil Elastase (neutrophil elastase; 37 °C, 2, 5, 10 and 30 min)	TL unmasking (U), Neutrophil Elastase (neutrophil elastase; 37 °C, 2, 5, 10 and 30 min)	Incubation time at which the first cleavage or decrease of the full-length peptide was observed, cathepsin G (cathepsin G) [min]	TL disarming (D), Cathepsin G (cathepsin G; 37 °C, 2, 5, 10 and 30 min)	TL unmasking (U), Cathepsin G (cathepsin G; 37 °C, 2, 5, 10 and 30 min)	Incubation time at which the first cleavage or decrease of the full-length peptide was observed, tryptase (tryptase) [min]	TL disarming (D), Tryptase (tryptase; 37 °C, 2, 5, 10 and 30 min)	TL unmasking (U), Tryptase (tryptase; 37 °C, 2, 5, 10 and 30 min)	Incubation time at which the first cleavage or decrease of the full-length peptide was observed, trypsin-2 (trypsin-2) [min]	TL disarming (D), Trypsin-2 (trypsin-2; 37 °C, 2, 5, 10 and 30 min)	TL unmasking (U), Trypsin-2 (trypsin-2; 37 °C, 2, 5, 10 and 30 min)	Efficiency of the first cleavage in the peptide, Pancreatic Elastase (pancreatic elastase I; [1])	Efficiency of the first cleavage in the peptide, Neutrophil Elastase (neutrophil elastase; [1])	Efficiency of the first cleavage in the peptide, Cathepsin G (cathepsin G; [1])	Efficiency of the first cleavage in the peptide, Tryptase (tryptase; [1])	Efficiency of the first cleavage in the peptide, Trypsin-2 (trypsin-2; [1])
CC[C@H](C)[C@H](NC(=O)[C@H](CC(C)C)NC(=O)[C@H](CO)NC(=O)[C@H](CCCNC(=N)N)NC(=O)CNC(=O)[C@H](CCCCN)NC(=O)[C@H](CO)NC(=O)[C@H](CO)NC(=O)[C@H](CCCNC(=N)N)NC(=O)[C@H](CC(N)=O)NC(=O)[C@@H](NC(=O)CNC(=O)[C@H](CCC(N)=O)NC(=O)[C@@H](NC(=O)[C@@H](N)[C@@H](C)O)[C@@H](C)CC)[C@@H](C)O)C(=O)NCC(=O)N[C@@H](CCCCN)C(=O)N[C@H](C(=O)N[C@@H](CC(=O)O)C(=O)NCC(=O)N[C@H](C(=O)N[C@@H](CO)C(=O)N[C@@H](Cc1c[nH]cn1)C(=O)N[C@H](C(N)=O)C(C)C)[C@@H](C)O)C(C)C [PAR2-based] (H-TIQGTNRSSKGRSLIGKVDGTSHV-NH2)	> 30	−	−	30	+ (processing after 10 or 30 min)	−	> 30	−	−	2	−	+++ (ultrafast processing within 2 min)	2	−	+++ (ultrafast processing within 2 min)					
CC[C@H](C)[C@H](NC(=O)[C@@H]1CCCN1C(=O)[C@H](CC(C)C)NC(=O)[C@@H](NC(=O)[C@@H]1CCCN1C(=O)[C@H](CCCCN)NC(=O)[C@H](C)NC(=O)[C@H](CC(C)C)NC(=O)[C@H](CC(N)=O)NC(=O)[C@H](CC(N)=O)NC(=O)[C@@H](NC(=O)[C@H](CC(=O)O)NC(=O)[C@H](CC(N)=O)NC(=O)[C@H](CCC(=O)O)NC(=O)[C@H](CCSC)NC(=O)CN)[C@@H](C)O)[C@@H](C)O)C(=O)N[C@@H](CCCCN)C(=O)N[C@H](C(=O)N[C@@H](Cc1ccccc1)C(=O)N[C@@H](CCCNC(=N)N)C(=O)NCC(=O)N[C@@H](C)C(=O)N1CCC[C@H]1C(=O)N1CCC[C@H]1C(=O)N[C@@H](CC(N)=O)C(=O)N[C@@H](CO)C(=O)N[C@@H](Cc1ccccc1)C(=O)N[C@@H](CCC(=O)O)C(N)=O)[C@@H](C)O [PAR3-based] (H-GMENDTNNLAKPTLPIKTFRGAPPNSFE-NH2)		+++ (ultrafast processing within 2 min)	−		+++ (ultrafast processing within 2 min)	−		+++ (ultrafast processing within 2 min)	−		+++ (ultrafast processing within 2 min)	−	2	++ (fast processing after 5 min)	+++ (ultrafast processing within 2 min)					
CC[C@H](C)[C@H](NC(=O)[C@H](CO)NC(=O)[C@@H]1CCCN1C(=O)[C@@H](NC(=O)[C@H](CO)NC(=O)[C@H](CC(=O)O)NC(=O)[C@H](CC(=O)O)NC(=O)CNC(=O)CNC(=O)CNC(=O)[C@@H](NC(=O)[C@H](CO)NC(=O)CNC(=O)[C@H](CO)NC(=O)[C@H](CCC(=O)O)NC(=O)[C@H](CC(=O)O)NC(=O)[C@H](Cc1ccc(O)cc1)NC(=O)[C@@H](NC(=O)[C@H](CO)NC(=O)[C@@H]1CCCN1C(=O)[C@@H](NC(=O)[C@H](CCC(N)=O)NC(=O)[C@@H](NC(=O)CNC(=O)CN)[C@@H](C)O)[C@@H](C)O)C(C)C)[C@@H](C)O)[C@@H](C)O)C(=O)N[C@@H](CC(C)C)C(=O)N1CCC[C@H]1C(=O)N[C@@H](C)C(=O)N1CCC[C@H]1C(=O)N[C@@H](CCCNC(=N)N)C(=O)NCC(=O)N[C@@H](Cc1ccc(O)cc1)C(=O)N1CCC[C@H]1C(=O)NCC(=O)N[C@@H](CCC(N)=O)C(=O)N[C@H](C(=O)N[C@@H](CS)C(=O)N[C@@H](C)C(=O)N[C@@H](CC(N)=O)C(=O)N[C@@H](CC(=O)O)C(N)=O)C(C)C [PAR4-based] (H-GGTQTPSVYDESGSTGGGDDSTPSILPAPRGYPGQVCAND-NH2)	> 30	−	−	> 30	−	−	> 30	−	−	> 30	−	−	2	−	+++ (ultrafast processing within 2 min)					
CC[C@H](C)[C@H](NC(=O)[C@H](CO)NC(=O)[C@H](CC(N)=O)NC(=O)[C@H](CC(C)C)NC(=O)[C@H](Cc1ccc(O)cc1)NC(=O)[C@H](CCCCN)NC(=O)[C@H](CCCCN)NC(=O)[C@@H](NC(=O)[C@H](C)NC(=O)[C@H](CCSC)NC(=O)[C@H](CCC(N)=O)NC(=O)[C@H](CCCCN)NC(=O)[C@H](CCCN=C(N)N)NC(=O)[C@H](CC(C)C)NC(=O)[C@H](CCCN=C(N)N)NC(=O)[C@@H](NC(=O)[C@H](Cc1ccc(O)cc1)NC(=O)[C@H](CC(N)=O)NC(=O)[C@H](CC(=O)O)NC(=O)[C@@H](NC(=O)[C@H](Cc1ccccc1)NC(=O)[C@@H](NC(=O)[C@H](C)NC(=O)[C@H](CC(=O)O)NC(=O)[C@H](CO)NC(=O)[C@@H](N)Cc1c[nH]cn1)C(C)C)[C@@H](C)O)[C@@H](C)O)C(C)C)C(=O)N[C@@H](CC(C)C)C(=O)N[C@@H](CC(N)=O)C(N)=O [VIP, Vasoactive intestinal peptide]	2			2						2			2			+++ (ultrafast processing within 2 min)	+++ (ultrafast processing within 2 min)	+++ (ultrafast processing within 2 min)	+++ (ultrafast processing within 2 min)	+++ (ultrafast processing within 2 min)
